Source: patent publication US8357635B2, “Microbiocides” (Syngenta Crop Protection LLC, priority 2009, dated 2013)
Where “and” joins values, the source holds several entries; their conditions need not be identical. Identical values can stand only once.

Legend:
Botrytis cinerea = assay: Action against Botrytis cinerea - fungal growth assay; type: cell-based; conditions: 0.002% active ingredient, PDB broth, 24° C., photometric after 3-4 days
Protocol: (§1) Conidia of the fungus from cryogenic storage was directly mixed into nutrient broth (PDB potato dextrose broth). After placing a (DMSO) solution of the test compounds (0.002% active ingredient) into a microtiter plate (96-well format) the nutrient broth containing the fungal spores was added. The test plates were incubated at 24° C. and the inhibition of growth was measured photometrically after 3-4 days. The activity of a compound was expressed as fungal growth inhibition (0=no growth inhibition, ratings of 80% to 99% mean good to very good inhibition, 100%=complete inhibition).

[1] = test system: Mycosphaerella arachidis (Cercospora arachidicola); assay: Action against Mycosphaerella arachidis (early leaf spot of groundnut) - fungal growth assay; type: cell-based; conditions: 0.002% active ingredient, PDB broth, 24° C., photometric after 6-7 days
Protocol: as §1, with “storage were” for “storage was”, “after 6-7” for “after 3-4”

Septoria tritici = assay: Action against Septoria tritici - fungal growth assay; type: cell-based; conditions: Zymoseptoria tritici; 0.002% active ingredient, PDB broth, 24° C., photometric after 72 hrs
Protocol: as §1, with “storage were” for “storage was”, “was determined” for “was measured”, “after 72 hrs.” for “after 3-4 days.”

[2] = test system: Monographella nivalis (Fusarium nivale, Microdochium nivale); assay: Action against Monographella nivalis (snow mould) - fungal growth assay; type: cell-based; conditions: 0.002% active ingredient, PDB broth, 24° C., photometric after 72 hrs
Protocol: as §1, with “storage were” for “storage was”, “a DMSO-solution” for “a (DMSO) solution”, “after 72 hrs” for “after 3-4 days. The activity of a compound was expressed as fungal growth inhibition”

[3] = test system: Erysiphe graminis f.sp. tritici; assay: Action against Erysiphe graminis f.sp. tritici (wheat powdery mildew), wheat leaf segments; type: in vivo; conditions: Blumeria graminis, foliar, 168 h; 0.02% active ingredient sprayed on wheat leaf segments, assessed 7 days after inoculation; read-out: preventive fungicidal activity (inhibition)
Protocol: (§2) Wheat leaf segments were placed on agar in multiwell plates (24-well format) and sprayed with test solutions (0.02% active ingredient). After drying, the leaf disks were inoculated with a spore suspension of the fungus. After appropriate incubation the activity of a compound was assessed 7 days after inoculation as preventive fungicidal activity.

Puccinia recondita [4] = assay: Protective action against Puccinia recondita (brown rust) on wheat leaf segments; type: in vivo; conditions: foliar, 192 h, 0.02% active ingredient sprayed on wheat leaf segments, assessed 8 days after inoculation, read-out: preventive fungicidal activity (inhibition)
Protocol: as §2, with “8” for “7”

Puccinia recondita [5] = assay: Curative action against Puccinia recondita (brown rust) on wheat leaf segments; type: in vivo; conditions: foliar, 0.02% active ingredient sprayed one day after inoculation on wheat leaf segments, assessed 8 days after inoculation, read-out: curative fungicidal activity (inhibition)
Protocol: Wheat leaf segments were placed on agar in multiwell plates (24-well format) and inoculated with a spore suspension of the fungus. One day after inoculation the leaf segments were sprayed with test solutions (0.02% active ingredient). After appropriate incubation the activity of a compound was assessed 8 days after inoculation as curative fungicidal activity.

Pyrenophora teres = assay: Action against Pyrenophora teres (net blotch) on barley leaf segments; type: in vivo; conditions: foliar, 96 h, 0.02% active ingredient sprayed on barley leaf segments, assessed 4 days after inoculation, read-out: preventive fungicidal activity (inhibition)
Protocol: as §2, with “Barley” for “Wheat”, “4” for “7”

Rhizoctonia solani = assay: Action against Rhizoctonia solani - fungal growth assay; type: cell-based; conditions: 0.002% active ingredient, PDB broth, 24° C., photometric after 3-4 days
Protocol: as §1, with “Mycelial fragments of a newly grown liquid culture” for “Conidia”, “were” for “from cryogenic storage was”

Row | SMILES | inhibition at 0.002 % strength (Botrytis cinerea) | inhibition at 0.002 % strength [1] | inhibition at 0.002 % strength (Septoria tritici) | inhibition at 0.002 % strength [2] | inhibition at 0.02 % strength [3] | inhibition at 0.02 % strength (Puccinia recondita [4]) | inhibition at 0.02 % strength (Puccinia recondita [5]) | inhibition at 0.02 % strength (Pyrenophora teres) | inhibition at 0.002 % strength (Rhizoctonia solani) | melting point
1 | CON(C(=O)c1cn(C)nc1C(F)F)C(C)C1CC1c1c(Cl)cc(Cl)cc1Cl (stereo not drawn) [Compound 1.034, trans-3-difluoromethyl-1-methyl-1H-pyrazole-4-carboxylic acid {1-[2-(2,4,6-trichlorophenyl)-cyclopropyl]-ethyl}-methoxy-amide] | ≥ 80% | ≥ 80% | ≥ 80% | ≥ 80% | ≥ 80% | ≥ 80% | ≥ 80% | ≥ 80% | ≥ 80% | –
2 | CON(C(=O)c1cn(C)nc1C(F)F)C(C)C1CC1c1ccccc1Cl (stereo not drawn) [Compound 1.011A, trans 3-difluoromethyl-1-methyl-1H-pyrazole-4-carboxylic acid {1-[2-(2-chloro-phenyl)-cyclopropyl]-ethyl}-methoxy-amide] | ≥ 80% | ≥ 80% | ≥ 80% | ≥ 80% | ≥ 80% | ≥ 80% | – | ≥ 80% | – | –
3 | CON(C(=O)c1cn(C)nc1C(F)F)C(C)C1CC1c1ccc(Cl)cc1Cl (single isomer, unassigned) [Compound 1.018A, trans-3-difluoromethyl-1-methyl-1H-pyrazole-4-carboxylic acid {1-[2-(2,4-dichlorophenyl)-cyclopropyl]-ethyl}-methoxy-amide] | – | – | – | – | – | – | – | – | – | 133 to 135 °C
4 | CON(C(=O)c1cn(C)nc1C(F)F)C(C)C1CC1c1c(F)cccc1Cl (stereo not drawn) [Compound 1.027, trans 3-difluoromethyl-1-methyl-1H-pyrazole-4-carboxylic acid{1-[2-(2-chloro-6-fluoro-phenyl)-cyclopropyl]-ethyl}-methoxy-amide] | ≥ 80% | ≥ 80% | ≥ 80% | ≥ 80% | ≥ 80% | ≥ 80% | ≥ 80% | ≥ 80% | – | –
5 | CON(C(=O)c1cn(C)nc1C(F)F)C(C)[C@@H]1C[C@H]1c1c(Cl)sc(Cl)c1Cl (relative stereo) [Compound 1.063, trans 3-Difluoromethyl-1-methyl-1H-pyrazole-4-carboxylic acid methoxy-{1-[2-(2,4,5-trichloro-thiophen-3-yl)-cyclopropyl]-ethyl}-amide] | – | – | – | – | – | – | – | – | – | 110 to 113 °C and 110 to 130 °C
6 | CON(C(=O)c1cn(C)nc1C(F)F)C(C)C1CC1c1ccc(Cl)cc1Cl (stereo not drawn) [Compound 1.018A, trans-3-difluoromethyl-1-methyl-1H-pyrazole-4-carboxylic acid {1-[2-(2,4-dichlorophenyl)-cyclopropyl]-ethyl}-methoxy-amide] | ≥ 80% | ≥ 80% | ≥ 80% | ≥ 80% | ≥ 80% | ≥ 80% | – | ≥ 80% | – | –
7 | CON(C(=O)c1cn(C)nc1C(F)F)C(C)C1CC1c1c(Cl)cccc1Cl (stereo not drawn) [Compound 1.028, trans-3-difluoromethyl-1-methyl-1H-pyrazole-4-carboxylic acid {1-[2-(2,6-dichlorophenyl)-cyclopropyl]-ethyl}-methoxy-amide] | ≥ 80% | ≥ 80% | ≥ 80% | ≥ 80% | ≥ 80% | ≥ 80% | ≥ 80% | ≥ 80% | ≥ 80% | –
8 | CON(C(=O)c1cn(C)nc1C(F)F)C(C)C1CC1c1ccc(Cl)cc1Cl (single isomer, unassigned) [Compound 1.018B, trans-3-difluoromethyl-1-methyl-1H-pyrazole-4-carboxylic acid {1-[2-(2,4-dichlorophenyl)-cyclopropyl]-ethyl}-methoxy-amide] | – | – | – | – | – | – | – | – | – | 142 to 144 °C
9 | CON(C(=O)c1cn(C)nc1C(F)F)C(C)C1CC1c1ccc(Cl)cc1Cl (stereo not drawn) [Compound 1.018B, trans-3-difluoromethyl-1-methyl-1H-pyrazole-4-carboxylic acid {1-[2-(2,4-dichlorophenyl)-cyclopropyl]-ethyl}-methoxy-amide] | – | – | – | – | – | – | ≥ 80% | – | – | –
